The text below walks through data of US7659263B2, “Thienopyrrole compound and use thereof as HCV polymerase inhibitor” (Japan Tobacco Inc., priority 2004, dated 2010).

The target of one assay is T1, NS5B 1a (Hepatitis C virus genotype 1a, UniProt P27958).
T1 construct: NS5B 1a
Nature of the assay: Assay of enzyme (HCV polymerase) inhibitory activity, NS5B 1a. The class given is biochemical. Particulars: HCV polymerase NS5B 1a; [3H]UTP incorporation, 25° C., 90 min.

Another assay concerns the target T2, NS5B 1b (Hepatitis C virus genotype 1b, UniProt P26663).
T2 construct: a region encoding NS5B (J Virol 1991 March, 65(3), 1105-13, 544 amino acids after deletion of 47 amino acids on the C-terminal); 6 His (C); made in house; host or cells: Escherichia coli
Nature of the assay: Assay of enzyme (HCV polymerase) inhibitory activity, NS5B 1b. Format: biochemical. An excerpt: The evaluation of the HCV polymerase inhibitory activity of the compound of the present invention is explained in the following. This polymerase is an enzyme coded for by the non-structural protein region called NS5B on the genome RNA of HCV (EMBO J., 15:12-22, 1996).
i) Preparation of enzyme (HCV polymerase)
Using, as a template, a cDNA clone corresponding to the full length genome RNA of HCV BK strain obtained from the blood of a patient with hepatitis C, a region encoding NS5B (J Virol 1991 March, 65(3), 1105-13, 544 amino acids after deletion of 47 amino acids on the C-terminal) was amplified by PCR. The objective gene was prepared by adding a 6 His tag {base pair encoding 6 continuous histidine (His)} to the 3′ end thereof and transformed to Escherichia coli. The Escherichia coli capable of producing the objective protein was cultured. The obtained cells were suspended in a buffer solution and crushed in a microfluidizer. The supernatant was obtained by centrifugation and applied to various column chromatographys {mono-S, Sephacryl S-200 (Pharmacia)}, inclusive of metal chelate chromatography, to give a standard enzyme product.
ii) Synthesis of Substrate RNA
Using a synthetic primer designed based on the sequence of HCV genomic 3′ untranslated region, a DNA fragment (148 bp) containing polyU and 3′X sequence was entirely synthesized and cloned into plasmid pBluescript SK II(+) (Stratagene). The cDNA encoding full length NS5B, which was prepared in i) above, was digested with restriction enzyme KpnI to give a cDNA fragment containing the nucleotide sequence of from the restriction enzyme cleavage site to the termination codon. This cDNA fragment was inserted into the upstream of 3′ untranslated region of the DNA in pBluescript SK II(+) and ligated. The about 450 bp inserted DNA sequence was used as a template in the preparation of substrate RNA. This plasmid was cleaved immediately after the 3′X sequence, linearized and purified by phenol-chloroform treatment and ethanol precipitation to give DNA.
RNA was synthesized (37° C., 3 hr) by run-off method using this purified DNA as a template, a promoter of pBluescript SK II(+), MEGAscript RNA synthesis kit (Ambion) and T7 RNA polymerase. DNase I was added and the mixture was incubated for 1 hr. The template DNA was removed by decomposition to give a crude RNA product. This crude product was treated with phenol-chloroform and purified by ethanol precipitation to give the objective substrate RNA.
This RNA was applied to formaldehyde denaturation agarose gel electrophoresis to confirm the quality thereof and preserved at −80° C. iii) Assay of enzyme (HCV polymerase) inhibitory activity A test substance (compound of the present invention) and a reaction mixture (30 μl) having the following composition were reacted at 25° C. for 90 min.
10% Trichloroacetic acid at 4° C. and 1% sodium pyrophosphate solution (150 μl) were added to this reaction mixture to stop the reaction. The reaction mixture was left standing in ice for 15 min to insolubilize RNA. This RNA was trapped on a glass filter (Whatman GF/C and the like) upon filtration by suction. This filter was washed with a solution containing 1% trichloroacetic acid and 0.1% sodium pyrophosphate, washed with 90% ethanol and dried. A liquid scintillation cocktail (Packard) was added and the radioactivity of RNA synthesized by the enzyme reaction was measured on a liquid scintillation counter.
The HCV polymerase inhibitory activity (IC50) of the compound of the present invention was calculated from the values of radioactivity of the enzyme reaction with and without the 20 test substance. […]

Structures can show the parent of a compound that is named as a salt.

A word on the IC50: it is the concentration that gives 50% inhibition.

T1 sequence (P27958 2421-3011): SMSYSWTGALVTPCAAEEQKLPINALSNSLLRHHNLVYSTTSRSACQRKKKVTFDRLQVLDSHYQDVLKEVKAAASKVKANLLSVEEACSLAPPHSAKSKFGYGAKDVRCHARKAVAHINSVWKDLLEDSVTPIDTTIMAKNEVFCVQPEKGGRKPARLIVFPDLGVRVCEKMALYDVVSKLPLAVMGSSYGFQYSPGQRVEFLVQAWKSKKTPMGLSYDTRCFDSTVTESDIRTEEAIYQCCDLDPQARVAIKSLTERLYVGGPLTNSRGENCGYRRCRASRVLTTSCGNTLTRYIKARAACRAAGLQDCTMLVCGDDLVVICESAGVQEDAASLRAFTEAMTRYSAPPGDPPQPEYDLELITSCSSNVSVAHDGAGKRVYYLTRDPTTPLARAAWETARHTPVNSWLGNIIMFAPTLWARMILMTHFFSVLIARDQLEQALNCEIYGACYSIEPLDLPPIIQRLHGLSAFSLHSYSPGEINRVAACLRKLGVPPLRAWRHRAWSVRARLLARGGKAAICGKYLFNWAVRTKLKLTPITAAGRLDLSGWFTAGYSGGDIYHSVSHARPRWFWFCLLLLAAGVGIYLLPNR
T2 sequence (P26663 2420-2963): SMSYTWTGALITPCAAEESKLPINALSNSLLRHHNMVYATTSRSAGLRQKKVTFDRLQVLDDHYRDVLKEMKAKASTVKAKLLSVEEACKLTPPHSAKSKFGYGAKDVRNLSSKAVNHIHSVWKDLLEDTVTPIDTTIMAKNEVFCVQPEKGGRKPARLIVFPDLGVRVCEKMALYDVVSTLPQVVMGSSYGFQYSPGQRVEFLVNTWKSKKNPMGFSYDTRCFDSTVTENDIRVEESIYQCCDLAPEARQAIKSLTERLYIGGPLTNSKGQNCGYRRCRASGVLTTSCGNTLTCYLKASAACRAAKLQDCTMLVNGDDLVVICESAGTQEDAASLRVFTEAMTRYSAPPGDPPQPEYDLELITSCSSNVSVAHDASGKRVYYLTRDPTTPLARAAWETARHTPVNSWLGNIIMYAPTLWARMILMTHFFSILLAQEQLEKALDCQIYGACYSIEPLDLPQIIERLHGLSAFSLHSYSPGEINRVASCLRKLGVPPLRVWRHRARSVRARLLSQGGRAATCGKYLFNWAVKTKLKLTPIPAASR

In the case of `O=C(O)c1cc2c(s1)c(C1CCCCC1)c1n2CCN(CCN2CCCCC2)c2cc(Cl)ccc2-1` [Example 20, 8-chloro-11-cyclohexyl-6-[2-(piperidin-1-yl)ethyl]-5,6-dihydro-4H-1-thia-3b,6-diazabenzo[e]cyclopenta[a]azulene-2-carboxylic acid dihydrochloride], the concentration for half-maximal inhibition (IC50) against NS5B 1a and against NS5B 1b was 10 to 100 nM throughout.
On to `O=C(O)c1cc2c(s1)c(C1CCCCC1)c1n2CCN(CCN2CCCCCCC2)c2ccccc2-1` [Example 21, 6-[2-(azocan-1-yl)ethyl]-11-cyclohexyl-5,6-dihydro-4H-1-thia-3b,6-diazabenzo[e]cyclopenta[a]azulene-2-carboxylic acid dihydrochloride], for which the 50% inhibitory concentration (IC50) on NS5B 1a was 10 to 100 nM; against NS5B 1b it was less than 10 nM.
In the case of `CC1CCCN(CCN2CCn3c(c(C4CCCCC4)c4sc(C(=O)O)cc43)-c3ccccc32)C1` (stereo not drawn) [Example 22, 11-cyclohexyl-6-[2-(3-methylpiperidin-1-yl)ethyl]-5,6-dihydro-4H-1-thia-3b,6-diazabenzo[e]cyclopenta[a]azulene-2-carboxylic acid dihydrochloride], the concentration for half-maximal inhibition (IC50) against NS5B 1a and on NS5B 1b was 10 to 100 nM each time.
As for `COCC[C@@H]1CCCN(CCN2CCn3c(c(C4CCCCC4)c4sc(C(=O)O)cc43)-c3ccccc32)C1` [Example 23, (S)-11-cyclohexyl-6-{2-[3-(2-methoxyethyl)piperidin-1-yl]ethyl)-5,6-dihydro-4H-1-thia-3b,6-diazabenzo[e]cyclopenta[a]azulene-2-carboxylic acid dihydrochloride], the concentration for half-maximal inhibition (IC50) against NS5B 1a and against NS5B 1b was 10 to 100 nM in each case.
`O=C(O)c1cc2c(s1)c(C1CCCCC1)c1n2CCN(CCN2CCCOCC2)c2ccccc2-1` [Example 24, 11-cyclohexyl-6-[2-(1,4-oxazepan-4-yl)ethyl]-5,6-dihydro-4H-1-thia-3b,6-diazabenzo[e]cyclopenta[a]azulene-2-carboxylic acid dihydrochloride]: the IC50 on NS5B 1a and at NS5B 1b was 10 to 100 nM in each case.
For `Cc1ccc2c(c1)N(CCN1CCCCCCC1)CCn1c-2c(C2CCCCC2)c2sc(C(=O)O)cc21` [Example 25, 6-[2-(azocan-1-yl)ethyl]-11-cyclohexyl-8-methyl-5,6-dihydro-4H-1-thia-3b,6-diazabenzo[e]cyclopenta[a]azulene-2-carboxylic acid dihydrochloride], the values for the IC50 against NS5B 1a and against NS5B 1b were 10 to 100 nM and less than 10 nM, respectively.
With `Cc1ccc2c(c1)N(CCN1CCCC(C)C1)CCn1c-2c(C2CCCCC2)c2sc(C(=O)O)cc21` (stereo not drawn) [Example 26, 11-cyclohexyl-8-methyl-6-[2-(3-methylpiperidin-1-yl)ethyl]-5,6-dihydro-4H-1-thia-3b,6-diazabenzo[e]cyclopenta[a]azulene-2-carboxylic acid dihydrochloride], the IC50 against NS5B 1a and on NS5B 1b was 10 to 100 nM in each case.
For the molecule `COCC[C@@H]1CCCN(CCN2CCn3c(c(C4CCCCC4)c4sc(C(=O)O)cc43)-c3ccc(C)cc32)C1` [Example 27, (S)-11-cyclohexyl-6-{2-[3-(2-methoxyethyl)piperidin-1-yl]ethyl}-8-methyl-5,6-dihydro-4H-1-thia-3b,6-diazabenzo[e]cyclopenta[a]azulene-2-carboxylic acid dihydrochloride], the IC50 on NS5B 1a and against NS5B 1b was 10 to 100 nM in each case.
In the case of `Cc1ccc2c(c1)N(CCN1CCCOCC1)CCn1c-2c(C2CCCCC2)c2sc(C(=O)O)cc21` [Example 28, 11-cyclohexyl-8-methyl-6-[2-(1,4-oxazepan-4-yl)ethyl]-5,6-dihydro-4H-1-thia-3b,6-diazabenzo[e]cyclopenta[a]azulene-2-carboxylic acid dihydrochloride], the IC50 on NS5B 1a and on NS5B 1b was 10 to 100 nM in each case.
For `O=C(O)c1cc2c(s1)c(C1CCCCC1)c1n2CCN(CCN2CCCCCCC2)c2cc(Cl)ccc2-1` [Example 29, 6-[2-(azocan-1-yl)ethyl]-8-chloro-11-cyclohexyl-5,6-dihydro-4H-1-thia-3b,6-diazabenzo[e]cyclopenta[a]azulene-2-carboxylic acid dihydrochloride], the concentration for half-maximal inhibition (IC50) on NS5B 1a and at NS5B 1b was 10 to 100 nM each time.
In the case of `CC1CCCN(CCN2CCn3c(c(C4CCCCC4)c4sc(C(=O)O)cc43)-c3ccc(Cl)cc32)C1` (stereo not drawn) [Example 30, 8-chloro-11-cyclohexyl-6-[2-(3-methylpiperidin-1-yl)ethyl]-5,6-dihydro-4H-1-thia-3b,6-diazabenzo[e]cyclopenta[a]azulene-2-carboxylic acid dihydrochloride], the figures for the IC50 on NS5B 1a and at NS5B 1b were 10 to 100 nM and less than 10 nM, respectively.
The like results for `COCC[C@@H]1CCCN(CCN2CCn3c(c(C4CCCCC4)c4sc(C(=O)O)cc43)-c3ccc(Cl)cc32)C1` [Example 31, (S)-8-chloro-11-cyclohexyl-6-{2-[3-(2-methoxyethyl)piperidin-1-yl]ethyl}-5,6-dihydro-4H-1-thia-3b,6-diazabenzo[e]cyclopenta[a]azulene-2-carboxylic acid dihydrochloride] were, in that order, 10 to 100 nM and less than 10 nM.
On the same counts, the results for `O=C(O)c1cc2c(s1)c(C1CCCCC1)c1n2CCN(CCN2CCCOCC2)c2cc(Cl)ccc2-1` [Example 32, 8-chloro-11-cyclohexyl-6-[2-(1,4-oxazepan-4-yl)ethyl]-5,6-dihydro-4H-1-thia-3b,6-diazabenzo[e]cyclopenta[a]azulene-2-carboxylic acid dihydrochloride] are 10 to 100 nM and less than 10 nM.
In the case of `Cc1ccc2c(c1)N(CCN1CCN(C(=O)OC(C)(C)C)CC1)CCn1c-2c(C2CCCCC2)c2sc(C(=O)O)cc21` [Example 33, 6-[2-(4-tert-butoxycarbonylpiperazin-1-yl)ethyl]-11-cyclohexyl-8-methyl-5,6-dihydro-4H-1-thia-3b,6-diazabenzo[e]cyclopenta[a]azulene-2-carboxylic acid hydrochloride], the IC50 against NS5B 1a and against NS5B 1b was 10 to 100 nM in each case.
For `CC(C)(C)OC(=O)N1CCN(CCN2CCn3c(c(C4CCCCC4)c4sc(C(=O)O)cc43)-c3ccc(Cl)cc32)CC1` [Example 34, 6-[2-(4-tert-butoxycarbonylpiperazin-1-yl)ethyl]-8-chloro-11-cyclohexyl-5,6-dihydro-4H-1-thia-3b,6-diazabenzo[e]cyclopenta[a]azulene-2-carboxylic acid hydrochloride], the IC50 at NS5B 1a and against NS5B 1b was 10 to 100 nM in each case.
Turning to `CCN1CCN(C(=O)CN2CCn3c(c(C4CCCCC4)c4sc(C(=O)O)cc43)-c3ccc(C)cc32)CC1` [Example 35, 11-cyclohexyl-6-[2-(4-ethylpiperazin-1-yl)-2-oxoethyl]-8-methyl-5,6-dihydro-4H-1-thia-3b,6-diazabenzo[e]cyclopenta[a]azulene-2-carboxylic acid dihydrochloride], the IC50 against NS5B 1a and against NS5B 1b was 10 to 100 nM in each case.
Turning to `CCN1CCN(C(=O)CN2CCn3c(c(C4CCCCC4)c4sc(C(=O)O)cc43)-c3ccc(Cl)cc32)CC1` [Example 36, 8-chloro-11-cyclohexyl-6-[2-(4-ethylpiperazin-1-yl)-2-oxoethyl]-5,6-dihydro-4H-1-thia-3b,6-diazabenzo[e]cyclopenta[a]azulene-2-carboxylic acid dihydrochloride], the half-maximal inhibitory concentration (IC50) at NS5B 1a and against NS5B 1b was 10 to 100 nM in each case.
As for `COc1ccc2c(c1)OCCn1c-2c(C2CCCCC2)c2sc(C(=O)NC3(C(=O)Nc4ccc(/C=C/C(=O)O)cc4)CCC3)cc21` [Example 37, (E)-3-[4-({1-[(11-cyclohexyl-8-methoxy-4,5-dihydro-6-oxa-1-thia-3b-azabenzo[e]cyclopenta[a]azulene-2-carbonyl)amino]cyclobutanecarbonyl}amino)phenyl]acrylic acid], the half-inhibitory concentration (IC50) against NS5B 1a and against NS5B 1b was 10 to 100 nM each time.
